Laboratory results as given in patent US10052320B2, “Substituted quinoxalines as FGFR kinase inhibitors” (ASTEX THERAPEUTICS LIMITED, priority 2011, dated 2018).
Like-named read-outs stand apart in the source and are kept apart here.

Legend:
FGFR3 (h) = FGFR3 (h) (Homo sapiens, UniProt P22607); assay: FGFR3 (enzymatic assay), TR-FRET; type: biochemical; conditions: read-out: FGFR 3 pIC50 (converted)
Method: (§1) In a final reaction volume of 30 μL, FGFR3 (h) (40 ng/ml) was incubated with 50 mM HEPES pH 7.5, 6 mM MnCl2, 1 mM DTT, 0.1 mM Na3VO4, 0.01% Triton-X-100, 500 nM Btn-Flt3 and 25 μM ATP in the presence of compound (1% DMSO final). […] Time-Resolved Fluorescence Resonance Energy Transfer (TR-FRET) signal (ex340 nm. Em 620 nm, em 655 nm) was measured afterwards and results are expressed in RFU (Relative Fluorescence Units).

[1] = tested on: Ba/F3-FGFR1-transfected cells in the presence of 10 ng/ml murine IL3; assay: Ba/F3-FGFR1 (plus IL3) cellular proliferation counterscreen, Alamar Blue; type: cell-based; conditions: Mus musculus
Procedure, shortened: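 Ba/F3 cells transfected with FGFR1 were incubated with compound in RPMI-1640/10% FBS for 24 h at 37 °C, 5% CO2. Alamar Blue (resazurin) was then added for 4 h and fluorescence was read at ex 540/em 590 nm. The counterscreen used the same conditions plus 10 ng/ml murine IL3.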

FGFR4 (h) = FGFR4 (h) (Homo sapiens, UniProt P22455); assay: FGFR4 (enzymatic assay), TR-FRET; type: biochemical; conditions: read-out: FGFR 4 pIC50 (converted)
Method: as §1, with “FGFR4” for “FGFR3”, “(60” for “(40”, “5” for “25”

[2] = target: Ba/F3-KDR-transfected cells (Homo sapiens, UniProt P35968); assay: Ba/F3-KDR (minus IL3) cellular proliferation assay, Alamar Blue; type: cell-based; conditions: minus IL3
Procedure, shortened: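 Ba/F3-KDR cells in RPMI-1640 with 10% FBS, 20000 (384-well) or 10000 (96-well) per well, given compound for 24 h at 37° C; Alamar Blue then added for 4 h and fluorescence read (ex 540/em 590 nm). Counterscreen run identically with 10 ng/ml murine IL3.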

KDR (h) (VEGFR2) = KDR (h) (VEGFR2) (Homo sapiens, UniProt P35968); assay: KDR (VEGFR2) (enzymatic assay), TR-FRET; type: biochemical
Procedure, shortened: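 Human KDR (150 ng/ml) was reacted with 500 nM Btn-Flt3 and 3 μM ATP in 50 mM HEPES pH 7.5, 6 mM MnCl2, 1 mM DTT, 0.1 mM Na3VO4, 0.01% Triton X-100, 1% DMSO, for 120 min at room temperature. Phosphorylation detected by TR-FRET (Eu-anti-P-Tyr/SA-XL665, 60 min), read in RFU.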

FGFR2 (h) = FGFR2 (h) (Homo sapiens, UniProt P21802); assay: FGFR2 (enzymatic assay), TR-FRET; type: biochemical; conditions: read-out: FGFR 2 pIC50 (converted)
Method: as §1, with “FGFR2” for “FGFR3”, “(150” for “(40”, “0.4” for “25”, “in” for “in RFU”

[3] = plus IL3, 96 well, read-out: BAF3-FGFR 1 (PLUS IL3) 96 well pIC50 (converted)
[4] = plus IL3, 384 well, read-out: BAF3-FGFR 1 (PLUS IL3) 384 well pIC50 (converted)

KDR (h) (VEGFR2), sequence (P35968 20-1356): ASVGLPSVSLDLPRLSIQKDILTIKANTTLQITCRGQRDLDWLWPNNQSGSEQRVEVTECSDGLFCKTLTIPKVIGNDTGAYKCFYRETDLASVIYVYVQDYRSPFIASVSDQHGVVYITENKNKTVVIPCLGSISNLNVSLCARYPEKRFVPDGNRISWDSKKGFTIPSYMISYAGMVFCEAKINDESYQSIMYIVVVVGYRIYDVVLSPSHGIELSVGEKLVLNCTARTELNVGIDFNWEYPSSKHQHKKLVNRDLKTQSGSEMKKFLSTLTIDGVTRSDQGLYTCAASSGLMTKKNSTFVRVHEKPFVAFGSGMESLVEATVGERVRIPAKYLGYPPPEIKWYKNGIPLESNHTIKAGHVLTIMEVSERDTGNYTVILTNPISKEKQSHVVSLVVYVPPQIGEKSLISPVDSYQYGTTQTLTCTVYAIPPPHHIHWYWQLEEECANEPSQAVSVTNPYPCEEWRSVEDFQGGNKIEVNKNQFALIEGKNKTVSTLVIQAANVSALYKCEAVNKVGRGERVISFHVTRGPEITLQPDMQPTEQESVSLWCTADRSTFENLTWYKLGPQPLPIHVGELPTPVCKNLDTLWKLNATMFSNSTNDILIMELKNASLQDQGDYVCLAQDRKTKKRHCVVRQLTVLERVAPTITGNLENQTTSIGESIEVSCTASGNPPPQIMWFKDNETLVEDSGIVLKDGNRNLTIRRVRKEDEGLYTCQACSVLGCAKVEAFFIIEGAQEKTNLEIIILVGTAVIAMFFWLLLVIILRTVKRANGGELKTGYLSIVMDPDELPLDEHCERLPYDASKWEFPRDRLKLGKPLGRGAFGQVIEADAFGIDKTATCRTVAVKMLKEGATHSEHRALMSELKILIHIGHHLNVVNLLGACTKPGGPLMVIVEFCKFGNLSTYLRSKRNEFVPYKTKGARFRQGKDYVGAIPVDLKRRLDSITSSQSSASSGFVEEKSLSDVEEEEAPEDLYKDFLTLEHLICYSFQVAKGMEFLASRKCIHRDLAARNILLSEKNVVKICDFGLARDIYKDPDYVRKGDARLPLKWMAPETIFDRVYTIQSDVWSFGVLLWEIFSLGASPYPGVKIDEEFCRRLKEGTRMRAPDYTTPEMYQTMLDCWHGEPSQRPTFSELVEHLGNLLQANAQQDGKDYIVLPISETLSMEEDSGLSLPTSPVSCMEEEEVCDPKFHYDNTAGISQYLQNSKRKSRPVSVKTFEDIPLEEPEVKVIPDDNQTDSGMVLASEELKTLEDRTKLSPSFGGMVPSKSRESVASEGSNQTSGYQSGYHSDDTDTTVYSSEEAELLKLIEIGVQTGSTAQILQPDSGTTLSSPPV
Ba/F3-KDR-transfected cells, sequence (P35968 whole entry, change not shown): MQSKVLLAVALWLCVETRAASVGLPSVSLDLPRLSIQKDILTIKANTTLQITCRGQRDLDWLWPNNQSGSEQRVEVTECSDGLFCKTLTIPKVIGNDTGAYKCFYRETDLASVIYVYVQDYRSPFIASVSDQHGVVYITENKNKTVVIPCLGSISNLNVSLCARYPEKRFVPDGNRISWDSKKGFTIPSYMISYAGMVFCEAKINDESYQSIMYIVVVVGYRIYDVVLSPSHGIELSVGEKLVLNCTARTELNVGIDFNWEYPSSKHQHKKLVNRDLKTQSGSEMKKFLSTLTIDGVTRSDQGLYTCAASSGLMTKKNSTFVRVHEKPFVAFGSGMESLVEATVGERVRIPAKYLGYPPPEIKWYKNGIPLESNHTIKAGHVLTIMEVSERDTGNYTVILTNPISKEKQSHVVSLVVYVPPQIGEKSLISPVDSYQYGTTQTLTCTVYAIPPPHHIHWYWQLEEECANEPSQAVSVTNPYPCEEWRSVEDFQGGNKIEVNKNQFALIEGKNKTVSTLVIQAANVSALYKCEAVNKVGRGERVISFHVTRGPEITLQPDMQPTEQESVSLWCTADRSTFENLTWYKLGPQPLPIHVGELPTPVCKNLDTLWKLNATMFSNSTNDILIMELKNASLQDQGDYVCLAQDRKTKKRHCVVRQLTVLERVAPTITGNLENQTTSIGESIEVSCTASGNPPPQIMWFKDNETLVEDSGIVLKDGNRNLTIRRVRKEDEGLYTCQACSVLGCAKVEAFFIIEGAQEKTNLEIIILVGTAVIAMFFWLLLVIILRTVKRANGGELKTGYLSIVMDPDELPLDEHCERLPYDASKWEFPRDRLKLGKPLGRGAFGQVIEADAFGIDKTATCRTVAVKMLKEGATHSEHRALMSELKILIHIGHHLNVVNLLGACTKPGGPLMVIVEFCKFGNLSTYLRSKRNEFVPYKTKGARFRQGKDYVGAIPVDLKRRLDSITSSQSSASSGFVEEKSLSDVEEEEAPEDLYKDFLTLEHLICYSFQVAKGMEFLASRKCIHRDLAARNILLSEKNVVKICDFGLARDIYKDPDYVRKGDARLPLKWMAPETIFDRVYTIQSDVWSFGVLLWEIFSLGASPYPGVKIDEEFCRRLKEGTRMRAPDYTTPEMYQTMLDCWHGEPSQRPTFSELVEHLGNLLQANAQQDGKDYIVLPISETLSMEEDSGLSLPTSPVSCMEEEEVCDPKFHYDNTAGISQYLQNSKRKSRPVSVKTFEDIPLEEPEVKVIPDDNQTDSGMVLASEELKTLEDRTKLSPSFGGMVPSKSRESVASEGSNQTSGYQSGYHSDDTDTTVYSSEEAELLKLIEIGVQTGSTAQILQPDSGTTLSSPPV
FGFR3 (h), sequence (P22607 23-806): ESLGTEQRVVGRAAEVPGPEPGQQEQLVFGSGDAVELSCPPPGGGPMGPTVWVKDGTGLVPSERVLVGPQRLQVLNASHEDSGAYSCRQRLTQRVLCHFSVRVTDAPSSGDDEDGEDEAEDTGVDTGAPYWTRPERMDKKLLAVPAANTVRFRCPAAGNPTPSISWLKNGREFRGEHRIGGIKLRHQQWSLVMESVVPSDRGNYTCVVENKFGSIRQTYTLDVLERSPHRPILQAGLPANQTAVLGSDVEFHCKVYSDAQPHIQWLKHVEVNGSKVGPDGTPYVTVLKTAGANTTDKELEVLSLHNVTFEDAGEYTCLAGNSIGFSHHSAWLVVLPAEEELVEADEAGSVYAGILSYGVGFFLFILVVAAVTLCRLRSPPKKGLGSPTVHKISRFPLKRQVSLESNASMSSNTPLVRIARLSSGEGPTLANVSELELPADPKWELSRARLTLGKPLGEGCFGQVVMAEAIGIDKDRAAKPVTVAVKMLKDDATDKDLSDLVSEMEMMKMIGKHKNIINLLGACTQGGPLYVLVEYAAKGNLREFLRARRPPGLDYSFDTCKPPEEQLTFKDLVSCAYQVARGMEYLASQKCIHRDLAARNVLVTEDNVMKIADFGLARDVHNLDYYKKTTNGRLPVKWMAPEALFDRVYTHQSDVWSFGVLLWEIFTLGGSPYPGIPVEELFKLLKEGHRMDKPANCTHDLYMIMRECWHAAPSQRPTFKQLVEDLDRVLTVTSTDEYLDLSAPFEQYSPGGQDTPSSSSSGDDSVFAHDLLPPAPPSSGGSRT
FGFR4 (h), sequence (P22455 22-802): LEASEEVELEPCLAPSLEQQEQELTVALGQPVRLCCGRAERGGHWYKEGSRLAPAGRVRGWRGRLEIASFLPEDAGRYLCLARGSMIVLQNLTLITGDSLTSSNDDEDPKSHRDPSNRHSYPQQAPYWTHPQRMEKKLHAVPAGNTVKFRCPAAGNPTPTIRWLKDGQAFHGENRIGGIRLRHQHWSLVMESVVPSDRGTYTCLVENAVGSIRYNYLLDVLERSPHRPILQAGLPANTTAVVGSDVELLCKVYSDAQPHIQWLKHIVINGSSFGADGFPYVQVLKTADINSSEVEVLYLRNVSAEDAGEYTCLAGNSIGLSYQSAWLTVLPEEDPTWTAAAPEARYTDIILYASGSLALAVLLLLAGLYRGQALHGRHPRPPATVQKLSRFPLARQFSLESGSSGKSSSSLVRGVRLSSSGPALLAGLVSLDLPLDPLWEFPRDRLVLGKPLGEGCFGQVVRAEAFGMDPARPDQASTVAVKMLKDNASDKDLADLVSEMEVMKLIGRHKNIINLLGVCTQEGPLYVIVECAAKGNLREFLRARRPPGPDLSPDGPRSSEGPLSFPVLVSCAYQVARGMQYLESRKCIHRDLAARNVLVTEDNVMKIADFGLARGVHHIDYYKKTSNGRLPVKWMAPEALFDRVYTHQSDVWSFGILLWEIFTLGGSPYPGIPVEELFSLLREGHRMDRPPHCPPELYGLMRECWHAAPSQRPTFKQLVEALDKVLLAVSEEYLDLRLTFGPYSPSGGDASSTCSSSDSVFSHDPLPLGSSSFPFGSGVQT
FGFR2 (h), sequence (P21802 22-821): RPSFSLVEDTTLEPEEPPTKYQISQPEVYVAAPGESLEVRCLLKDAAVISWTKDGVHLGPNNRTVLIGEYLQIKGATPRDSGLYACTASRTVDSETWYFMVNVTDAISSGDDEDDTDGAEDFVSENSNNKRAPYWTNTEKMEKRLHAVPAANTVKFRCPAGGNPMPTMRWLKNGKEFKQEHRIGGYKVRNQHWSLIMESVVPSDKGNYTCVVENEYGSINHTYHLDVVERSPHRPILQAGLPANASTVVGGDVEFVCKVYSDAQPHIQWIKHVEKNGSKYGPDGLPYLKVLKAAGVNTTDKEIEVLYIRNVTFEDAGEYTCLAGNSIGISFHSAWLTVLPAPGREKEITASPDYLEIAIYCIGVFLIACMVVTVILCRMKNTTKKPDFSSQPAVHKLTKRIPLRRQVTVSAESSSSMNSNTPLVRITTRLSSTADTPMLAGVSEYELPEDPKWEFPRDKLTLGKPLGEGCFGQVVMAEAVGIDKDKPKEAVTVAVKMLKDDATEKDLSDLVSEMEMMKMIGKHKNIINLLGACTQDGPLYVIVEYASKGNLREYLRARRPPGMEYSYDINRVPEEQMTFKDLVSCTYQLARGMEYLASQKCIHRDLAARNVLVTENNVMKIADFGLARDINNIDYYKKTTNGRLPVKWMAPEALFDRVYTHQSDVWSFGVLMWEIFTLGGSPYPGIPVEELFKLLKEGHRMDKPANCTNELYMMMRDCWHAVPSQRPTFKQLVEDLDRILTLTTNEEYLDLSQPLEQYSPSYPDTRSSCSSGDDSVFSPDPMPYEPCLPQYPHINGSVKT

SMILES	IC50 (FGFR3 (h)) [nM]	IC50 [1, 3] [nM]	IC50 [1, 4] [nM]	IC50 (FGFR4 (h)) [nM]	BAF3-KDR (MIN IL3) 384 well pIC50 [2]	IC50 (KDR (h) (VEGFR2)) [nM]	IC50 (FGFR2 (h)) [nM]	BAF3-KDR (MIN IL3) 96 well pIC50 [2]
COc1cc(OC)cc(N(CC2CC2)c2ccc3ncc(-n4ccc(C)n4)nc3c2)c1 [Compound 31]	339	> 10000	> 10000	776	<5	> 1000	> 1000	
COc1cc(OC)cc(N(CC2CC2)c2ccc3ncc(-n4ccnc4C)nc3c2)c1 [Compound 32]	479	> 10000	> 10000	> 1000	<5	> 1000	575	
COc1cc(OC)cc(N(CCCO)c2ccc3ncc(-c4ccnc(C(=O)NCCCN)c4)nc3c2)c1 [Compound 33]	19.1		> 10000	115	<5	575	22.9	
COc1cc(OC)cc(N(CC2CC2)c2ccc3ncc(-c4cn(CCO)nn4)nc3c2)c1 [Compound 40]	49	> 10000	> 10000	302	<5	398	89.1	<5
COc1cc(OC)cc(N(CC2CC2)c2ccc3ncc(-c4nnn[nH]4)nc3c2)c1 [Compound 41]	64.6	> 10000	> 10000	79.4	<5	3310	178	
COc1cc(OC)cc(N(CCCO)c2ccc3ncc(-c4ccc(N5CCNCC5)nc4)nc3c2)c1 [Compound 48]	3.31		~5250	15.5	5.39	110	4.07	
COc1cc(OC)cc(N(CC2CC2)c2ccc3ncc(-n4cncn4)nc3c2)c1 [Compound 50]	447	> 10000	> 10000	> 1000	<5	> 1000	~708	<5
COc1cc(OC)cc(N(Cc2cccc(CN)n2)c2ccc3ncc(-c4ccc(N)nc4)nc3c2)c1 [Compound 51]	11		> 10000	69.2	5.04	309	8.91	
COc1cc(OC)cc(N(CC2CC2)c2ccc3ncc(-c4cnco4)nc3c2)c1 [Compound 55]	30.9	> 10000	> 10000	275	<5	912	47.9	<5
COc1cc(OC)cc(N(CC2CC2)c2ccc3ncc(-c4ccn[nH]4)nc3c2)c1 [Compound 58]	81.3	> 10000	> 10000	550	<5	> 1000	537	
COc1cc(OC)cc(N(CC2CC2)c2ccc3ncc(-c4nccn4C)nc3c2)c1 [Compound 60]	955	> 10000	> 10000	1120	<5	> 10000	1410	
COc1cc(OC)cc(N(CC2CC2)c2ccc3ncc(-n4nccc4C)nc3c2)c1 [Compound 62]	> 1000	> 10000	> 10000	> 1000	<5	> 1000	> 1000	
CCOC(=O)c1ncn(-c2cnc3ccc(N(CC4CC4)c4cc(OC)cc(OC)c4)cc3n2)c1C [Compound 65]	> 1000	> 10000	> 10000	> 1000	<5	> 1000	> 1000	<5
COc1cc(OC)cc(N(CCCO)c2ccc3ncc(-c4ccnc(N)c4)nc3c2)c1 [Compound 66]	2.09		> 10000	13.2	5.52	75.9	4.07	
